Where “and” joins values, the source holds several entries; their conditions need not be identical. Equal entries are not always repeated. Calls of active or inactive are those of the source.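 Rule for the calls: active = EC50 below 10 microM from an accepted curve fit, fit percent over 10, EC50 error under a fifth; inactive = the rest.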
system: S. cerevisiae aged culture, superoxide DHE fluorescence, 7 d; assay: reduction of age-related superoxide, S. cerevisiae – additional hits, confirmation, dose response (AID 504927); conditions: not given

Q: Which EC50 does the source give for `CCN(CC)c1ccc2nc3ccc(N)cc3[n+](-c3ccccc3)c2c1` here?
A: The EC50 was 2310 nM.

Q: With `OCC[n+]1c2ccccc2nc2ccc(N3CCOCC3)cc21` as the compound, how does the EC50 read?
A: Its EC50 is 2610 nM.

Q: Which EC50 does the source give for `O=C(O)c1cnc2ccccc2n1` here?
A: The EC50 was 13400 nM (inactive).

Q: With `O=C(OCc1c(F)cccc1Cl)c1cnc2ccccc2n1` as the compound, how does the EC50 read?
A: The EC50 was 5980 nM.

Q: For `O=C(Nc1ccc2nc3ccccc3nc2c1)c1ccccc1`, which EC50 is on record?
A: The EC50 was 80 nM.

Q: Which EC50 does the source give for `O=C(Nc1cccc(Cl)c1)Nc1ccc2nccnc2c1` here?
A: Its EC50 is 510 nM.

Q: For `Cc1cccc2nc3ccccc3nc12`, which EC50 is on record?
A: Its EC50 is 2720 nM.

Q: With `C[n+]1c2ccccc2nc2ccc(NCCO)cc21` as the compound, how does the EC50 read?
A: Its EC50 is 4520 nM.

Q: Which EC50 does the source give for `CNc1ccc2nc3ccccc3[n+](C)c2c1` here?
A: Its EC50 is 2110 nM.

Q: For `COC(=O)c1cccc2nc3c(C(C)O)cccc3nc12` (stereo not drawn), which EC50 is on record?
A: The EC50 was 910 nM.

Q: With `O=C1c2c(O)ccc(O)c2C(=O)c2c(NCCNCCO)ccc(NCCNCCO)c21` as the compound, how does the EC50 read?
A: Its EC50 is 6580 nM.

Q: With `C#CCSc1nnc(-c2ccc([N+](=O)[O-])cc2)o1` as the compound, how does the EC50 read?
A: The EC50 was 5160 nM.

Q: Which EC50 does the source give for `COc1ccc2nc3ccccc3nc2c1NC(=O)c1ccccc1Cl` here?
A: The EC50 was 60 nM.

Q: For `COc1ccc2nc3ccccc3nc2c1N`, which EC50 is on record?
A: The EC50 was 1130 nM.

Q: Which EC50 does the source give for `C/C(=N\Nc1ncnc2sc(C)c(C)c12)c1ccccn1` here?
A: Its EC50 is 10400 nM (inactive).

Q: For `C[C@]12CCC3C(CC[C@H]4C[C@H](O)CC[C@]34C)C1C[C@@H](CCCCl)[C@@H]2O` (stereo partly drawn), which EC50 is on record?
A: Its EC50 is 530 nM.

Q: With `Cn1c(=O)[nH]c2nncnc2c1=O` as the compound, how does the EC50 read?
A: Its EC50 is 3400 nM.

Q: Which EC50 does the source give for `Nc1cc2nc3ccccc3nc2cc1N` here?
A: Its EC50 is 3500 nM.

Q: Which EC50 does the source give for `CCN(CC)C(=O)c1ccc2nc3ccccc3nc2c1` here?
A: The EC50 was 790 nM.

Q: For `O=C(c1cccc2nc3ccccc3nc12)N1CCOCC1`, which EC50 is on record?
A: Its EC50 is 1750 nM.

Q: With `COc1ccc2nc3ccccc3nc2c1` as the compound, how does the EC50 read?
A: Its EC50 is 370 nM and 850 nM.

Q: Which EC50 does the source give for `CCN(CC)C(=O)c1cccc2nc3ccccc3nc12` here?
A: Its EC50 is 1520 nM.

Q: Which EC50 does the source give for `CSc1nnc2c3cc(F)ccc3n(C)c2n1` here?
A: Its EC50 is 5860 nM.

Q: With `CSc1nnc(-c2ccc([N+](=O)[O-])cc2)o1` as the compound, how does the EC50 read?
A: Its EC50 is 13100 nM (inactive).

Q: With `CC(C)OC(=O)c1ccc2nc3ccccc3nc2c1` as the compound, how does the EC50 read?
A: Its EC50 is 12600 nM (inactive).

Q: For `CC(C)(C)n1nc(-c2ccc(Cl)cc2)c2c(N)ncnc21`, which EC50 is on record?
A: The EC50 was 4230 nM.

Q: Which EC50 does the source give for `CC(C)(C)n1nc(-c2ccc(F)cc2)c2c(N)ncnc21` here?
A: The EC50 was 2440 nM.

Q: Which EC50 does the source give for `CC(=O)Nc1ccc2nc3ccccc3nc2c1` here?
A: Its EC50 is 170 nM.

Q: With `C[C@]12CCC3C(CC[C@H]4C[C@H](O)CC[C@]34C)C1CCC2=O` (stereo partly drawn) as the compound, how does the EC50 read?
A: The EC50 was 30 nM.

Q: Which EC50 does the source give for `C[C@@]12C(=O)OC(=O)[C@]1(C)C1CCC2O1` here?
A: Its EC50 is 180 nM.

Q: With `c1ccc2[nH]c3cc4ncnc4cc3nc2c1` as the compound, how does the EC50 read?
A: The EC50 was 130 nM.

Q: For `[O-][n+]1c2ccccc2[n+]([O-])c2cc(O)ccc21`, which EC50 is on record?
A: Its EC50 is 1110 nM.

system: not listed separately; assay: as above; conditions: S. cerevisiae aged culture, superoxide DHE fluorescence, 7 d; at 33.1 µM (top of the series)

Q: Which percent response (superoxide), lower = inhibition does the source give for `C=CCOn1c(=O)c(-c2cccs2)[n+]([O-])c2ccccc21` here?
A: The percent response (superoxide), lower = inhibition was 83.4% (inactive).

Q: Which percent response (superoxide), lower = inhibition does the source give for `CNC(=O)c1cccc2nc3ccccc3nc12` here?
A: Its percent response (superoxide), lower = inhibition is 52% (inactive).

Q: Which percent response (superoxide), lower = inhibition does the source give for `CCc1nc(NC(C)(C)C)c2cnn(-c3ccccc3)c2n1` here?
A: Its percent response (superoxide), lower = inhibition is 119% (inactive).

Q: Which percent response (superoxide), lower = inhibition does the source give for `FC(F)(F)c1nc2cc3nc4ccccc4[nH]c3cc2n1` here?
A: The percent response (superoxide), lower = inhibition was 72.2% (inactive).

Q: With `COc1ccc2c3c(cccc13)N(C)N=C2C` as the compound, how does the percent response (superoxide), lower = inhibition read?
A: Its percent response (superoxide), lower = inhibition is 78.1% (inactive).

Q: Which percent response (superoxide), lower = inhibition does the source give for `CC(C)(C)Nc1ncnc2c1cnn2-c1ccccc1` here?
A: The percent response (superoxide), lower = inhibition was 110% (inactive).

Q: With `Cc1cc2nc3ccc(N(C)C)cc3nc2cc1N` as the compound, how does the percent response (superoxide), lower = inhibition read?
A: Its percent response (superoxide), lower = inhibition is 82.4% (inactive).

Q: With `Cc1cc(C)c2[nH]c3nc(SCC(=O)O)nnc3c2c1` as the compound, how does the percent response (superoxide), lower = inhibition read?
A: Its percent response (superoxide), lower = inhibition is 111% (inactive).

Q: Which percent response (superoxide), lower = inhibition does the source give for `O=C(/C=C/c1cccs1)NC(=S)NNC(=O)Cc1cccs1` here?
A: Its percent response (superoxide), lower = inhibition is 132% (inactive).

Q: With `C=CCSc1nnc(-c2ccc([N+](=O)[O-])cc2)o1` as the compound, how does the percent response (superoxide), lower = inhibition read?
A: Its percent response (superoxide), lower = inhibition is 63.5% (inactive).

Q: Which percent response (superoxide), lower = inhibition does the source give for `O=C(/C=C/c1ccccc1)NC(=S)NNC(=O)Cc1cccs1` here?
A: Its percent response (superoxide), lower = inhibition is 78.9% (inactive).

Q: With `COc1cccc2nc3cc(C)c(C)cc3nc12` as the compound, how does the percent response (superoxide), lower = inhibition read?
A: The percent response (superoxide), lower = inhibition was 78.3% (inactive).

Q: With `CC(C)CSc1nnc2c3ccccc3n(C)c2n1` as the compound, how does the percent response (superoxide), lower = inhibition read?
A: The percent response (superoxide), lower = inhibition was 105% (inactive).

Q: Which percent response (superoxide), lower = inhibition does the source give for `CCCCCNC(=O)C(=O)C1C(=O)Nc2ccccc21` (stereo not drawn) here?
A: The percent response (superoxide), lower = inhibition was 86.1% (inactive).

Q: For `Oc1cccc2nc3ccccc3nc12`, which percent response (superoxide), lower = inhibition is on record?
A: Its percent response (superoxide), lower = inhibition is 129% (inactive).

Q: Which percent response (superoxide), lower = inhibition does the source give for `CCN(CC)C(=O)CSc1nnc(-c2cccc(OC)c2)o1` here?
A: Its percent response (superoxide), lower = inhibition is 108% (inactive).

Q: With `Cc1ccc(-c2nn(C(C)(C)C)c3ncnc(N)c23)cc1` as the compound, how does the percent response (superoxide), lower = inhibition read?
A: The percent response (superoxide), lower = inhibition was 44.3% (inactive).

Q: With `COc1ccc2c(c1)c1nnc(SC)nc1n2C` as the compound, how does the percent response (superoxide), lower = inhibition read?
A: Its percent response (superoxide), lower = inhibition is 54.2% (inactive).

Q: For `O=C(CN1CCN(c2ccccn2)CC1)Nc1ccccc1F`, which percent response (superoxide), lower = inhibition is on record?
A: The percent response (superoxide), lower = inhibition was 108% (inactive).

Q: For `COc1ccc2nc3cccc(OC)c3nc2c1`, which percent response (superoxide), lower = inhibition is on record?
A: Its percent response (superoxide), lower = inhibition is 79.2% (inactive).

Q: With `O=c1[nH]c(O)c(C=Nc2ccc(F)c(Cl)c2)c(=O)[nH]1` as the compound, how does the percent response (superoxide), lower = inhibition read?
A: The percent response (superoxide), lower = inhibition was 97.1% (inactive).

Q: With `CN(C)CCNc1ncnc2c1cnn2-c1ccc(Cl)cc1` as the compound, how does the percent response (superoxide), lower = inhibition read?
A: Its percent response (superoxide), lower = inhibition is 97.4% (inactive).

Q: For `CCn1c2ccccc2c2n[nH]c(=S)nc21`, which percent response (superoxide), lower = inhibition is on record?
A: The percent response (superoxide), lower = inhibition was 94.7% (inactive).

Q: Which percent response (superoxide), lower = inhibition does the source give for `C=C1C(O)[C@@H]2O[C@]3(CC[C@H](/C=C/C(C)[C@@H]4CC(C)=CC5(O[C@H](C[C@@](C)(O)C(=O)O)CCC5O)O4)O3)CC[C@H]2O[C@@H]1C(O)CC(C)[C@H]1OC2(CCCCO2)CCC1C` (stereo partly drawn) here?
A: The percent response (superoxide), lower = inhibition was 84% (inactive).

Q: For `Cn1c(O)c(C(=Nc2ccc(F)cc2)c2ccccc2Cl)c(=O)n(C)c1=O`, which percent response (superoxide), lower = inhibition is on record?
A: The percent response (superoxide), lower = inhibition was 113% (inactive).

Q: With `NC(=O)CSc1nnc(-c2ccc([N+](=O)[O-])cc2)o1` as the compound, how does the percent response (superoxide), lower = inhibition read?
A: Its percent response (superoxide), lower = inhibition is 99.1% (inactive).

Q: For `O=C(Nc1ccc2nc3ccccc3nc2c1)c1ccc(Br)cc1`, which percent response (superoxide), lower = inhibition is on record?
A: Its percent response (superoxide), lower = inhibition is 104% (inactive).

Q: With `COc1ccc2nc3ccccc3[n+]([O-])c2c1` as the compound, how does the percent response (superoxide), lower = inhibition read?
A: Its percent response (superoxide), lower = inhibition is 107% (inactive).

Q: For `Cc1cc(C)cc(NC(=O)CN2CCN(c3ccccn3)CC2)c1`, which percent response (superoxide), lower = inhibition is on record?
A: The percent response (superoxide), lower = inhibition was 95.7% (inactive).

Q: With `CCC(=Nc1ccccc1O)C1=C(O)CC(c2ccccc2)CC1=O` (stereo not drawn) as the compound, how does the percent response (superoxide), lower = inhibition read?
A: The percent response (superoxide), lower = inhibition was 87.9% (inactive).

Q: Which percent response (superoxide), lower = inhibition does the source give for `CC(=O)O[C@H]1CCC2C3CC[C@H]4[C@@H](O)[C@H](O)CC[C@]4(C)C3CC[C@@]21C` (stereo partly drawn) here?
A: The percent response (superoxide), lower = inhibition was 93.3% (inactive).

Q: For `CC(=O)[C@@]1(O)CCC2C3CC[C@H]4C[C@@H](O)CC[C@]4(C)C3CC[C@@]21C` (stereo partly drawn), which percent response (superoxide), lower = inhibition is on record?
A: Its percent response (superoxide), lower = inhibition is 107% (inactive).

Q: With `N#CC(c1nc2ccccc2nc1N1CCCC1)S(=O)(=O)c1ccccc1` (stereo not drawn) as the compound, how does the percent response (superoxide), lower = inhibition read?
A: Its percent response (superoxide), lower = inhibition is 128% (inactive).

Q: With `C[C@]12CCC3C(CC[C@H]4C[C@@H](O)CC[C@]34C)[C@H]1CC[C@H]2O` (stereo partly drawn) as the compound, how does the percent response (superoxide), lower = inhibition read?
A: Its percent response (superoxide), lower = inhibition is 113% (inactive).

Q: With `N#CCc1nn(-c2ccccc2)c2ncnc(N)c12` as the compound, how does the percent response (superoxide), lower = inhibition read?
A: Its percent response (superoxide), lower = inhibition is 95.5% (inactive).

Q: Which percent response (superoxide), lower = inhibition does the source give for `C#C[C@]1(O)[C@H](O)CC2C3CC[C@H]4C[C@@H](O)CC[C@]4(C)C3CC[C@@]21C` (stereo partly drawn) here?
A: Its percent response (superoxide), lower = inhibition is 117% (inactive).

Q: With `C[C@]12CCC3C(CC[C@H]4C[C@@H](O)CC[C@]34C)C1CC[C@@H]2OC(=O)[C@H](N)CCCCN` (stereo partly drawn) as the compound, how does the percent response (superoxide), lower = inhibition read?
A: Its percent response (superoxide), lower = inhibition is 96.2% (inactive).

Q: Which percent response (superoxide), lower = inhibition does the source give for `Cc1ccccc1NC(=O)c1cccc2nc3ccccc3nc12` here?
A: Its percent response (superoxide), lower = inhibition is 104% (inactive).

Q: With `c1ccc2nc3ccccc3nc2c1` as the compound, how does the percent response (superoxide), lower = inhibition read?
A: The percent response (superoxide), lower = inhibition was 88.6% (inactive).

Q: With `COc1ccc2cc(C3CC(c4ccco4)=NN3S(=O)(=O)c3ccccc3)c(Cl)nc2c1` (stereo not drawn) as the compound, how does the percent response (superoxide), lower = inhibition read?
A: Its percent response (superoxide), lower = inhibition is 110% (inactive).

Q: For `CC(C)OC(=O)CSc1nnc(-c2ccc(Cl)cc2Cl)o1`, which percent response (superoxide), lower = inhibition is on record?
A: Its percent response (superoxide), lower = inhibition is 128% (inactive).

Source: PubChem BioAssay AID504927 (NMMLSC, 2011)
